{"source": "patent US9895346B2", "about": "“Applications of substituent benzyloxy group containing ether compounds for preparing antitumor drugs” (Sinochem Corporation, priority 2013, dated 2018)", "key": {"[1]": {"tested_on": "colon cancer RkO", "assay": "In vitro cell inhibition assay, colon cancer RkO", "assay_type": "cell-based, human", "source_text": "(§1) In vitro Cell inhibition assay is as follows:\n(§2) The human cancer cell lines used for this assay were bladder cancer J82, T24, prostate cancer LNCap, PC-3, lung cancer A549, H157, H460, H520, colon cancer HCT8, HCT116, RkO, and leukemia HL-60, etc."}, "[2]": {"tested_on": "human leukemia HL-60 cells", "assay": "Proliferation inhibition of human leukemia HL-60 cells, MTT method", "assay_type": "cell-based", "details": "48 h incubation, OPTI-MEM medium", "summary_of_the_method": "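Cells at 5×10^4 cells/mL cultured overnight at 37 °C, 5% CO2, then exposed to compounds at different concentrations for 48 h. MTT added for 4 h, formazan dissolved in DMSO and absorbance read at 570 nm to give inhibition rate.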"}, "[3]": {"tested_on": "prostate cancer cell line LNCap", "assay": "In vitro cell inhibition assay (crystal violet), prostate cancer LNCap", "assay_type": "cell-based, human", "source_text": "as §1, §2\n(§3) In vitro cell culture technology was selected for the determination of inhibition rate bladder cancer cell lines J82 and T24, prostate cancer cell lines LNCap and PC-3, lung cancer cell lines A549, H157, H460 and H520. 1000 to 3000 cells were inoculated to 24-well plate, followed by addition of 1 mL culture medium well known to researchers in this field to each well, the cells were cultured in 5% incubator for 24 hours at 37° C., then the different concentration compounds and controls were added to each well. It should be noted that the added volume is not more than 0.5% of total volume. After completion of addition, the cells continued being cultured in incubator for one week, the culture medium was removed and washed by cold PBS of 1 mL once, and then fixed for 10 minutes at room temperature with 1% formalin, followed by wash with PBS of 1 mL. After fixation, stain was carried out with 0.1% crystal violet for 30 minutes. 0.1% crystal violet was recycled. The stained cells were washed gently with deionized water, dried at room temperature and kepted. The inhibition rate was calculated according to the foiling equation. The controls are Selumetinib (AZD6244), Gefitinib, Cisplatin. Inhibition rate=number of left cells each treatment/number of left cells of untreated control×100%"}, "[4]": {"tested_on": "lung cancer cell line A549", "assay": "In vitro cell inhibition assay (crystal violet), lung cancer A549", "assay_type": "cell-based, human", "summary_of_the_method": "(§4)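 1000-3000 cells per well grown 24 h at 37 °C, then exposed to compound for one week (vehicle ≤0.5% of volume). Cells formalin-fixed and stained with 0.1% crystal violet. Inhibition rate = remaining cells in treated wells / remaining cells in untreated control × 100%.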"}, "[5]": {"tested_on": "lung cancer cell line H157", "assay": "In vitro cell inhibition assay (crystal violet), lung cancer H157", "assay_type": "cell-based, human", "source_text": "as §1, §2, §3"}, "[6]": {"tested_on": "colon cancer HCT116", "assay": "In vitro cell inhibition assay, colon cancer HCT116", "assay_type": "cell-based, human", "source_text": "as §1, §2"}, "[7]": {"tested_on": "colon cancer HCT8", "assay": "In vitro cell inhibition assay, colon cancer HCT8", "assay_type": "cell-based, human", "source_text": "as §1, §2"}, "[8]": {"tested_on": "prostate cancer cell line PC-3", "assay": "In vitro cell inhibition assay (crystal violet), prostate cancer PC-3", "assay_type": "cell-based, human", "source_text": "as §1, §2, §3"}, "[9]": {"tested_on": "lung cancer cell line H460", "assay": "In vitro cell inhibition assay (crystal violet), lung cancer H460", "assay_type": "cell-based, human", "summary_of_the_method": "as §4"}, "[10]": {"tested_on": "bladder cancer cell line T24", "assay": "In vitro cell inhibition assay (crystal violet), bladder cancer T24", "assay_type": "cell-based, human", "source_text": "as §1, §2, §3"}, "[11]": {"tested_on": "bladder cancer cell line J82", "assay": "In vitro cell inhibition assay (crystal violet), bladder cancer J82", "assay_type": "cell-based, human", "summary_of_the_method": "as §4"}, "[12]": {"tested_on": "lung cancer cell line H520", "assay": "In vitro cell inhibition assay (crystal violet), lung cancer H520", "assay_type": "cell-based, human", "summary_of_the_method": "as §4"}}}
{"smiles": "CCCCc1c(C)c2ccc(OCc3ccccc3/C(=C\\OC)C(=O)OC)cc2oc1=O", "note": "[Compound 28-72, coumoxystrobin]", "values": [{"measurement": "Inhibition rate on human cancer cells", "setting": "[1]; 0.25 μM", "value": 95, "unit": "%"}, {"measurement": "Inhibition rate on human cancer cells", "setting": "[1]; 0.5 μM", "value": 100, "unit": "%"}, {"measurement": "Inhibition rate on human cancer cells", "setting": "[1]; 1.0 μM", "value": 100, "unit": "%"}, {"measurement": "Inhibition rate on human cancer cells", "setting": "[1]; 2.5 μM", "value": 100, "unit": "%"}, {"measurement": "Inhibition rate on human cancer cells", "setting": "[1]; 5.0 μM", "value": 100, "unit": "%"}, {"measurement": "Proliferation inhibitory effect on human leukemia HL-60 cell (%)", "setting": "[2]; concentration 1 μM", "value": 45.3, "unit": "%"}, {"measurement": "Proliferation inhibitory effect on human leukemia HL-60 cell (%)", "setting": "[2]; concentration 10 μM", "value": 47.9, "unit": "%"}, {"measurement": "Proliferation inhibitory effect on human leukemia HL-60 cell (%)", "setting": "[2]; concentration 100 μM", "value": 54.4, "unit": "%"}, {"measurement": "Inhibition rate on human cancer cells", "setting": "[3]; 0.25 μM", "value": 100, "unit": "%"}, {"measurement": "Inhibition rate on human cancer cells", "setting": "[3]; 0.5 μM", "value": 100, "unit": "%"}, {"measurement": "Inhibition rate on human cancer cells", "setting": "[3]; 1.0 μM", "value": 100, "unit": "%"}, {"measurement": "Inhibition rate on human cancer cells", "setting": "[3]; 2.5 μM", "value": 100, "unit": "%"}, {"measurement": "Inhibition rate on human cancer cells", "setting": "[3]; 5.0 μM", "value": 100, "unit": "%"}, {"measurement": "Inhibition rate on human cancer cells", "setting": "[4]; A549, 0.5 μM", "value": 90, "unit": "%"}, {"measurement": "Inhibition rate on human cancer cells", "setting": "[4]; A549, 1.0 μM", "value": 95, "unit": "%"}, {"measurement": "Inhibition rate on human cancer cells", "setting": "[4]; A549, 2.5 μM", "value": 100, "unit": "%"}, {"measurement": "Inhibition rate on human cancer cells", "setting": "[4]; A549, 5.0 μM", "value": 100, "unit": "%"}, {"measurement": "Inhibition rate on human cancer cells", "setting": "[5]; H157, 0.25 μM", "value": ">90", "unit": "%"}, {"measurement": "Inhibition rate on human cancer cells", "setting": "[5]; H157, 0.5 μM", "value": 100, "unit": "%"}, {"measurement": "Inhibition rate on human cancer cells", "setting": "[5]; H157, 1.0 μM", "value": 100, "unit": "%"}, {"measurement": "Inhibition rate on human cancer cells", "setting": "[5]; H157, 2.5 μM", "value": 100, "unit": "%"}, {"measurement": "Inhibition rate on human cancer cells", "setting": "[5]; H157, 5.0 μM", "value": 100, "unit": "%"}, {"measurement": "Inhibition rate on human cancer cells", "setting": "[6]; HCT 116, 0.25 μM", "value": 80, "unit": "%"}, {"measurement": "Inhibition rate on human cancer cells", "setting": "[6]; HCT 116, 0.5 μM", "value": 95, "unit": "%"}, {"measurement": "Inhibition rate on human cancer cells", "setting": "[6]; HCT 116, 1.0 μM", "value": 99, "unit": "%"}, {"measurement": "Inhibition rate on human cancer cells", "setting": "[6]; HCT 116, 2.5 μM", "value": 100, "unit": "%"}, {"measurement": "Inhibition rate on human cancer cells", "setting": "[6]; HCT 116, 5.0 μM", "value": 100, "unit": "%"}, {"measurement": "Inhibition rate on human cancer cells", "setting": "[7]; HCT 8, 0.5 μM", "value": 95, "unit": "%"}, {"measurement": "Inhibition rate on human cancer cells", "setting": "[7]; HCT 8, 1.0 μM", "value": 100, "unit": "%"}, {"measurement": "Inhibition rate on human cancer cells", "setting": "[7]; HCT 8, 2.5 μM", "value": 100, "unit": "%"}, {"measurement": "Inhibition rate on human cancer cells", "setting": "[7]; HCT 8, 5.0 μM", "value": 100, "unit": "%"}, {"measurement": "Inhibition rate on human cancer cells", "setting": "[8]; PC-3, 0.25 μM", "value": 100, "unit": "%"}, {"measurement": "Inhibition rate on human cancer cells", "setting": "[8]; PC-3, 0.5 μM", "value": 100, "unit": "%"}, {"measurement": "Inhibition rate on human cancer cells", "setting": "[8]; PC-3, 1.0 μM", "value": 100, "unit": "%"}, {"measurement": "Inhibition rate on human cancer cells", "setting": "[8]; PC-3, 2.5 μM", "value": 100, "unit": "%"}, {"measurement": "Inhibition rate on human cancer cells", "setting": "[8]; PC-3, 5.0 μM", "value": 100, "unit": "%"}, {"measurement": "Inhibition rate on human cancer cells", "setting": "[9]; H460, 0.25 μM", "value": 95, "unit": "%"}, {"measurement": "Inhibition rate on human cancer cells", "setting": "[9]; H460, 0.5 μM", "value": 100, "unit": "%"}, {"measurement": "Inhibition rate on human cancer cells", "setting": "[9]; H460, 1.0 μM", "value": 100, "unit": "%"}, {"measurement": "Inhibition rate on human cancer cells", "setting": "[9]; H460, 2.5 μM", "value": 100, "unit": "%"}, {"measurement": "Inhibition rate on human cancer cells", "setting": "[9]; H460, 5.0 μM", "value": 100, "unit": "%"}, {"measurement": "Inhibition rate on human cancer cells", "setting": "[10]; T24, 0.25 μM", "value": 100, "unit": "%"}, {"measurement": "Inhibition rate on human cancer cells", "setting": "[10]; T24, 0.5 μM", "value": 100, "unit": "%"}, {"measurement": "Inhibition rate on human cancer cells", "setting": "[10]; T24, 1.0 μM", "value": 100, "unit": "%"}, {"measurement": "Inhibition rate on human cancer cells", "setting": "[10]; T24, 2.5 μM", "value": 100, "unit": "%"}, {"measurement": "Inhibition rate on human cancer cells", "setting": "[10]; T24, 5.0 μM", "value": 100, "unit": "%"}, {"measurement": "Inhibition rate on human cancer cells", "setting": "[11]; J82, 0.25 μM", "value": 70, "unit": "%"}, {"measurement": "Inhibition rate on human cancer cells", "setting": "[11]; J82, 0.5 μM", "value": 90, "unit": "%"}, {"measurement": "Inhibition rate on human cancer cells", "setting": "[11]; J82, 1.0 μM", "value": 95, "unit": "%"}, {"measurement": "Inhibition rate on human cancer cells", "setting": "[11]; J82, 2.5 μM", "value": 100, "unit": "%"}, {"measurement": "Inhibition rate on human cancer cells", "setting": "[11]; J82, 5.0 μM", "value": 100, "unit": "%"}, {"measurement": "Inhibition rate on human cancer cells", "setting": "[12]; H520, 0.25 μM", "value": ">90", "unit": "%"}, {"measurement": "Inhibition rate on human cancer cells", "setting": "[12]; H520, 0.5 μM", "value": 100, "unit": "%"}, {"measurement": "Inhibition rate on human cancer cells", "setting": "[12]; H520, 1.0 μM", "value": 100, "unit": "%"}, {"measurement": "Inhibition rate on human cancer cells", "setting": "[12]; H520, 2.5 μM", "value": 100, "unit": "%"}, {"measurement": "Inhibition rate on human cancer cells", "setting": "[12]; H520, 5.0 μM", "value": 100, "unit": "%"}]}
